Source: US20090169573A1, “T-Cell Stimulatory Peptides From The Melanoma-Associated Chondroitin Sulfate Proteoglycan And Their Use” (priority 2004, published 2009)

How the values were obtained:
CD4+ T-cell clone 3 = experiment: IFN-γ production of CD4+ T-cell clone 3 on peptide-pulsed autologous EBV-B cells (ELISA); type: cell-based, human
HLA-DR 11 = experiment: HLA restriction of clone 3: blocking antibodies and EBV-B cell lines with different HLA class II molecules; type: cell-based, human; details: peptide 5 μg/ml, IFN-γ production
Procedure: FIG. 14: Autologous EBV-B cells (15,000) pulsed with 16-mer MCSP peptide (aa 1281-1296 (SEQ ID NO:48), 5 μg/ml) were used as stimulator cells in the presence of different blocking antibodies. All antibodies were used at a final concentration of 5 μg/ml each.
FIG. 15: Several EBV-B cell lines with different HLA class II molecules were pulsed with peptide MCSP1281-1296 (SEQ ID NO:48; 5 μg/ml) and tested for recognition (at 15,000 cells per well) by the CD4^+ T cell clone (4,000 cells per well).
(§1) 8. Determination of HLA restriction element utilized by MCSP-specific CD4^+ T-cell clone 25 and 3: To analyze the HLA restriction of CD4^+ T-cell clone 25 and 3, three monoclonal antibodies directed against anti-DR (L243; BD Biosciences, San Jose, USA), anti-DQ (CSPVL3; Immunotech) or anti-DP (B7/21; BD Biosciences, San Jose, USA) were used to test which one inhibited the recognition of antigen-presenting cells by the clone. First EBV-B cells (1.5×10^4 per round-bottomed microtiter plate well) were incubated for 1 h at 37° C., 8% CO2 in the presence of the peptide (SEQ ID NO:9 for clone 25, SEQ ID NO:48 for clone 3). The antibodies were added at a concentration of 5 ng/ml. The CD4^+ T-cell clone 25 or 3 was then added at 4×10^3 per well.

CD4+ T-cell clone 25 = type: cell-based, human; details: for recognition by clone 25 of overlapping 16-mer peptides: IFN-γ ELISA
HLA-DR11 = experiment: HLA restriction of clone 25: blocking antibodies and EBV-B cell lines with different HLA class II molecules; type: cell-based, human; details: IFN-γ production
Procedure: FIG. 6: Autologous EBV-B cells (1.5×10^4) pulsed with 1 μM of the 16-mer MCSP peptide […] (SEQ ID NO:9) were used as stimulator cells in the presence of different blocking antibodies (anti-DR, anti-DQ or anti-DP). Also a control with no antibody (no Ab) was set up. All antibodies were used at a final concentration of 5 μg/ml each.
FIG. 7: 1.5×10^4 cells of several EBV-B cell lines (LP2-, LB1981-, R12-, PV6-, AC 42- and 4800-EBV) with different HLA class II molecules (HLA-DR11 positive or HLA-DR11 negative) were pulsed/loaded for 1 h with MCSP peptide […] (SEQ ID NO:9) (1 μM, white bar) and tested for recognition by the CD4^+ T cell clone. As control, the cells were pulsed in the absence of protein (black spotted bar).
as §1
9. Determination of HLA-DR restriction element utilized by MCSP-specific CD4^+ T-cell clone 25: It was determined that cytokine secretion by the CD4^+ T-cell clone 25 occurred in response to EBV-B cells pulsed/loaded with MCSP-derived peptides restricted to HLA-DR. To further define the HLA-restriction element utilized by clone 25, additional EBV-B cell lines were used for peptide presentation as described above. In particular LP2-, LB1981-, R12-, PV6-, AC 42- and 4800-EBV which have with different HLA class II molecules (HLA-DR11 positive or HLA-DR11 negative) were used. They were pulsed/loaded for 1 h with 1 μM MCSP peptide […] […]

CD4+ T-cells = experiment: CD4+ T-cell induction with peptide-loaded dendritic cells, IFN-γ ELISA of microcultures; type: cell-based, human
CD8+ T-cells = experiment: CD8+ T-cell induction with TAT-MCSP-peptide-loaded dendritic cells, IFN-γ ELISA of microcultures; details: donor 11325; long TAT-MCSP-peptide 10 μM; not with control peptide; FIG. 18
Procedure: After 3 weekly restimulations microcultures were tested for their IFN-γ production when stimulated with autologous EBV-B cells loaded with the TAT-MCSP peptide (SEQ ID NO:54) or a control peptide.
Aliquots of approximately 4,000 CD8^+ T-cells from each 96-well microculture were co-incubated with 15,000 stimulator cells and after 20 h the IFN-γ concentration in the supernatant was measured by ELISA. […] Bars represent standard deviations.
In order to isolate MCSP specific CD8^+ T cells, DCs were derived from monocytes of healthy donors using IL-4 and GM-CSF and loaded with the long TAT-MCSP-peptide of SEQ ID NO:54 at 20 μg/ml overnight so that potential T-cell epitopes within this peptide could be processed and presented by the cell. DCs were matured 6 h after peptide-loading by a cytokine cocktail (IL-1β, IL-6, TNF-α, PGE2) as described in Example 3 (b). Autologous CD8^+ T-cells were stimulated with protein-loaded mature DCs in 96-well-plates on the next day (FIG. 17). […]
Autologous EBV-B cells (5×10^5) were incubated for 18-20 h at 37° C. in the presence of 10 μg/ml or 20 μg/ml (compare Figure legends) of the MCSP peptide or an irrelevant control peptide as a negative control. […] After 18-20 h, supernatants were harvested and assessed for IFN-γ content using an ELISA assay with reagents from Medgenix Diagnostics-Biosource (Fleurus, Belgium). […]

[1] = autologous EBV-B cells pulsed 1 μM, 1 h, FIG. 4

Question: “YARAAARQARA [SEQ ID NO:53, TAT PDT variant peptide, reference compound]” was tested. Which “recognition by clone 3 of overlapping peptides of the 42-mer” value (CD4+ T-cell clone 3; autologous EBV-B cells pulsed 5 μg/ml, 1 h, IFN-γ ELISA, FIG. 12) did it give?
Answer: not

Question: Which “recognition by clone 3 of peptide-loaded autologous EBV-B cells in presence of anti-HLA-DR antibody” value (HLA-DR 11; FIG. 14) does the source give for PPSAGYLVMVSRGALA [SEQ ID NO:42] here?
Answer: abolished

Question: And the “recognition by clone 3 of peptide-loaded autologous EBV-B cells in presence of antibodies against HLA-DP or HLA-DQ” value (HLA-DR 11; FIG. 14)?
Answer: no influence

Question: What about the “presentation of peptide to clone 3 by EBV-B cell lines with different HLA class II typings” value (HLA-DR 11; FIG. 15) of the same sequence?
Answer: only those expressing HLA-DR 11 were able to present the peptide to clone 3

Question: And the “efficiency of stimulation of clone 3 among overlapping peptides” value (CD4+ T-cell clone 3; autologous EBV-B cells pulsed 5 μg/ml, 1 h, FIG. 12)?
Answer: most efficiently

Question: Which “efficiency of stimulation of clone 25 among overlapping 16-mer peptides” value (CD4+ T-cell clone 25; [1]) does the source give for VGQDVSVLFRVTGALQ [SEQ ID NO:9] here?
Answer: most efficiently

Question: And the “recognition by clone 25 of overlapping 16-mer peptides” value (CD4+ T-cell clone 25; [1])?
Answer: recognized

Question: And the “peptide concentration found optimal to achieve CD4+ T-cell stimulation” value (CD4+ T-cell clone 25; titration experiments, clone 25)?
Answer: 2 µg/mL

Question: And the “presentation of peptide to clone 25 by EBV-B cell lines with different HLA class II typings” value (HLA-DR11; LP2-, LB1981-, R12-, PV6-, AC 42- and 4800-EBV pulsed 1 μM 1 h, FIG. 7)?
Answer: only those expressing HLA-DRB1*11 (PV6-, AC 42- and 4800-EBV) were able to present the peptide to clone 25

Question: And the “recognition by clone 25 of peptide-loaded autologous EBV-B cells in presence of anti-HLA-DR antibody” value (HLA-DR11; peptide 1 μM, FIG. 6)?
Answer: completely abolished

Question: What about the “recognition by clone 25 of peptide-loaded autologous EBV-B cells in presence of antibodies against HLA-DP or HLA-DQ” value (HLA-DR11; peptide 1 μM, FIG. 6) of the same sequence?
Answer: no influence

Question: With ETNAVGQDVSVLFRVT [SEQ ID NO:8] as the sequence, how does the “recognition by clone 25 of overlapping 16-mer peptides” value (CD4+ T-cell clone 25; [1]) read?
Answer: recognized

Question: How did the “recognition of truncated peptides by clone 3” value (CD4+ T-cell clone 3; truncated peptides derived from SEQ ID NO:42, 5 μg/ml, IFN-γ ELISA, FIG. 13) turn out when GYLVMVSRGALA [SEQ ID NO:46] was run?
Answer: shortest peptide efficiently recognized

Question: With “LAQGSAMPILPANLSVETNAVGQDVSVLFRVTGALQFGELQK [SEQ ID NO:3]” as the sequence, how does the “IFN-γ production of clone C2/25 after stimulation with peptide-loaded autologous EBV-B-cells” value (CD4+ T-cell clone 25; 42 mer 5 μM overnight, not with EBV-B-cells with or without control peptide, FIG. 3) read?
Answer: specific IFN-γ production

Question: What about the “number of microcultures with peptide-specific CD4+ T-cells generated” value (CD4+ T-cells; DCs loaded with the 42 mer overnight (50 μg/ml), matured by cytokine cocktail) of the same sequence?
Answer: 2

Question: What about the “number of peptide-specific T-cell clones obtained” value (CD4+ T-cells; from microculture C2, limiting dilution) of the same sequence?
Answer: 3

Question: Which “number of microcultures with peptide-specific CD4+ T-cells generated” value (CD4+ T-cells; DCs loaded with long TAT-MCSP-peptide at 20 μg/ml overnight, donor 11325) does the source give for “YARAAARQARAPPADIVFSVKSPPSAGYLVMVSRGALADEPP [SEQ ID NO:54]” here?
Answer: 3

Question: And the “number of peptide-specific T-cell clones generated” value (CD4+ T-cells; from microculture F1, limiting dilution)?
Answer: 3

Question: What about the “IFN-γ production of CD8+ T-cells from microcultures after stimulation with peptide-loaded autologous EBV-B-cells” value (CD8+ T-cells) of the same sequence?
Answer: specific IFN-γ production

Question: And the “Interferon-γ production of clone F1/3 after stimulation with peptide-loaded autologous EBV-B-cells” value (CD4+ T-cell clone 3; long TAT-MCSP-peptide 10 μM overnight, not with EBV-B-cells with or without control peptide, FIG. 11)?
Answer: specific Interferon-γ production
